Laboratory results: patent publication US9340590B2 (priority 2011, dated 2016)
Like-named read-outs stand apart in the source and are kept apart here. Positions of bridges follow the written chain, without caps; N, C: chain ends. Non-standard residues stand in square brackets, D forms with d. Residues, ends and D or L forms follow the SMILES beside them. Phe(4-COOH) = N[C@@H](Cc1ccc(C(=O)O)cc1)C(=O)O; 2Pal = N[C@@H](Cc1ccccn1)C(=O)O

What was measured:
Assay in all cases: cell-based
hNav1.7 = hNav1.7 (Homo sapiens, UniProt Q15858); type: cell-based; details: IonWorks Quattro, read-out: IWQ Use Nav1.7
hNav1.5 = hNav1.5 (Homo sapiens, UniProt Q14524)
hNav1.3 = hNav1.3 (Homo sapiens, UniProt Q9NY46); details: IonWorks Quattro, read-out: IWQ Use Nav1.3
[1] = IonWorks Quattro, use-dependent block, hNav1.5, read-out: IWQ Use Nav1.5

Chain of hNav1.5 (Q14524 whole entry, looked up): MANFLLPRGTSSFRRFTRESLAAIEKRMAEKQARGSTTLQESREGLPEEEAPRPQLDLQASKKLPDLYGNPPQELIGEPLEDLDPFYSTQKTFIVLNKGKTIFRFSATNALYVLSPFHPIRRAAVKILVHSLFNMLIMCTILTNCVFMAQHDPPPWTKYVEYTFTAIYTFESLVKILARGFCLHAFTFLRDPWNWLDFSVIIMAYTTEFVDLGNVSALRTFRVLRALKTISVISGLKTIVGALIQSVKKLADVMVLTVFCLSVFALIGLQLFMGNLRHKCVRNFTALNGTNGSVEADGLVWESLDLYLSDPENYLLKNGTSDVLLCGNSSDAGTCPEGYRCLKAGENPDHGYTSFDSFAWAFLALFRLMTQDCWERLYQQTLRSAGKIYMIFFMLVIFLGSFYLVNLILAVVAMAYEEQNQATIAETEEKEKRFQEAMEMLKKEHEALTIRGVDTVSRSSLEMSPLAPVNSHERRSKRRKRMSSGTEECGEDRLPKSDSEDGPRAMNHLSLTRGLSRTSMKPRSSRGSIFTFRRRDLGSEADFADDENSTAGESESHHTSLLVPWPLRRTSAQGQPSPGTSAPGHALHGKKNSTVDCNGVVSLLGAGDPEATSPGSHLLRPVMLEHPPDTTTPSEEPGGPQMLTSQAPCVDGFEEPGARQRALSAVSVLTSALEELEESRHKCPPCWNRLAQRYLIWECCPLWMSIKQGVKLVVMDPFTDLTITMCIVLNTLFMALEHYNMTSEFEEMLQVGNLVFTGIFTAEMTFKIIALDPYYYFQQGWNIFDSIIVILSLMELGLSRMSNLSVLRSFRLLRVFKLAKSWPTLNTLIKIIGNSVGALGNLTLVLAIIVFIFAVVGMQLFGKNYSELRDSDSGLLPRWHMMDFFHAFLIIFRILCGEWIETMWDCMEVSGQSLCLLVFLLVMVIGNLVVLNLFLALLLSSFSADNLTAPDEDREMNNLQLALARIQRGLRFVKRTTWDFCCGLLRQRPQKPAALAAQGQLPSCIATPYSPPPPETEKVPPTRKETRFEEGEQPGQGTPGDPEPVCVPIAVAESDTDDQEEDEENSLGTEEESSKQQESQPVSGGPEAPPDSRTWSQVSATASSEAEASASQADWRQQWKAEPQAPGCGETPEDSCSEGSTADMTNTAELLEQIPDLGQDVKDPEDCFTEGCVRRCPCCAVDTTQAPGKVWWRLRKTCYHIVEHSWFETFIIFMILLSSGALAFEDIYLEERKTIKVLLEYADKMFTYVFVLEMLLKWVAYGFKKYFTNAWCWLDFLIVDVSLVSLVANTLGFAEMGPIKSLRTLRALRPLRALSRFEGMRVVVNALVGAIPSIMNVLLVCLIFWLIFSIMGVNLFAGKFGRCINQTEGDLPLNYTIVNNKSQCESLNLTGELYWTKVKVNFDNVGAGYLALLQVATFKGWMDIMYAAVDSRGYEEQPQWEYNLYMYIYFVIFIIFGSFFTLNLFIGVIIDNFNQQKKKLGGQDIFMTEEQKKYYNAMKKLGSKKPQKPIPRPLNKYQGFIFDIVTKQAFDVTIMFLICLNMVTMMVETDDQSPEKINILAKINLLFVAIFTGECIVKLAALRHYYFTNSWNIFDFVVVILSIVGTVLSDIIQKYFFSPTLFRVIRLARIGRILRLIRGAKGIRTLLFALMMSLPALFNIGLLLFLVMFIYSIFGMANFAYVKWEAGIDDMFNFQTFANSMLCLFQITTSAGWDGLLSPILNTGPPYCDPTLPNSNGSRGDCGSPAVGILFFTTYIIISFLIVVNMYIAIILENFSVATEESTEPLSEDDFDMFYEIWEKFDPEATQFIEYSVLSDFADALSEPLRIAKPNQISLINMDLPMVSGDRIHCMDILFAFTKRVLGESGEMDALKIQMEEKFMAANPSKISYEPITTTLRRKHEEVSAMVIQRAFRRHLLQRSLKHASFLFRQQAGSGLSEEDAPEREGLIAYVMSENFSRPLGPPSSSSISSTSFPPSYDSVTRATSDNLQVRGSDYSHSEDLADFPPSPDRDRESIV
Chain of hNav1.3 (Q9NY46 whole entry, looked up): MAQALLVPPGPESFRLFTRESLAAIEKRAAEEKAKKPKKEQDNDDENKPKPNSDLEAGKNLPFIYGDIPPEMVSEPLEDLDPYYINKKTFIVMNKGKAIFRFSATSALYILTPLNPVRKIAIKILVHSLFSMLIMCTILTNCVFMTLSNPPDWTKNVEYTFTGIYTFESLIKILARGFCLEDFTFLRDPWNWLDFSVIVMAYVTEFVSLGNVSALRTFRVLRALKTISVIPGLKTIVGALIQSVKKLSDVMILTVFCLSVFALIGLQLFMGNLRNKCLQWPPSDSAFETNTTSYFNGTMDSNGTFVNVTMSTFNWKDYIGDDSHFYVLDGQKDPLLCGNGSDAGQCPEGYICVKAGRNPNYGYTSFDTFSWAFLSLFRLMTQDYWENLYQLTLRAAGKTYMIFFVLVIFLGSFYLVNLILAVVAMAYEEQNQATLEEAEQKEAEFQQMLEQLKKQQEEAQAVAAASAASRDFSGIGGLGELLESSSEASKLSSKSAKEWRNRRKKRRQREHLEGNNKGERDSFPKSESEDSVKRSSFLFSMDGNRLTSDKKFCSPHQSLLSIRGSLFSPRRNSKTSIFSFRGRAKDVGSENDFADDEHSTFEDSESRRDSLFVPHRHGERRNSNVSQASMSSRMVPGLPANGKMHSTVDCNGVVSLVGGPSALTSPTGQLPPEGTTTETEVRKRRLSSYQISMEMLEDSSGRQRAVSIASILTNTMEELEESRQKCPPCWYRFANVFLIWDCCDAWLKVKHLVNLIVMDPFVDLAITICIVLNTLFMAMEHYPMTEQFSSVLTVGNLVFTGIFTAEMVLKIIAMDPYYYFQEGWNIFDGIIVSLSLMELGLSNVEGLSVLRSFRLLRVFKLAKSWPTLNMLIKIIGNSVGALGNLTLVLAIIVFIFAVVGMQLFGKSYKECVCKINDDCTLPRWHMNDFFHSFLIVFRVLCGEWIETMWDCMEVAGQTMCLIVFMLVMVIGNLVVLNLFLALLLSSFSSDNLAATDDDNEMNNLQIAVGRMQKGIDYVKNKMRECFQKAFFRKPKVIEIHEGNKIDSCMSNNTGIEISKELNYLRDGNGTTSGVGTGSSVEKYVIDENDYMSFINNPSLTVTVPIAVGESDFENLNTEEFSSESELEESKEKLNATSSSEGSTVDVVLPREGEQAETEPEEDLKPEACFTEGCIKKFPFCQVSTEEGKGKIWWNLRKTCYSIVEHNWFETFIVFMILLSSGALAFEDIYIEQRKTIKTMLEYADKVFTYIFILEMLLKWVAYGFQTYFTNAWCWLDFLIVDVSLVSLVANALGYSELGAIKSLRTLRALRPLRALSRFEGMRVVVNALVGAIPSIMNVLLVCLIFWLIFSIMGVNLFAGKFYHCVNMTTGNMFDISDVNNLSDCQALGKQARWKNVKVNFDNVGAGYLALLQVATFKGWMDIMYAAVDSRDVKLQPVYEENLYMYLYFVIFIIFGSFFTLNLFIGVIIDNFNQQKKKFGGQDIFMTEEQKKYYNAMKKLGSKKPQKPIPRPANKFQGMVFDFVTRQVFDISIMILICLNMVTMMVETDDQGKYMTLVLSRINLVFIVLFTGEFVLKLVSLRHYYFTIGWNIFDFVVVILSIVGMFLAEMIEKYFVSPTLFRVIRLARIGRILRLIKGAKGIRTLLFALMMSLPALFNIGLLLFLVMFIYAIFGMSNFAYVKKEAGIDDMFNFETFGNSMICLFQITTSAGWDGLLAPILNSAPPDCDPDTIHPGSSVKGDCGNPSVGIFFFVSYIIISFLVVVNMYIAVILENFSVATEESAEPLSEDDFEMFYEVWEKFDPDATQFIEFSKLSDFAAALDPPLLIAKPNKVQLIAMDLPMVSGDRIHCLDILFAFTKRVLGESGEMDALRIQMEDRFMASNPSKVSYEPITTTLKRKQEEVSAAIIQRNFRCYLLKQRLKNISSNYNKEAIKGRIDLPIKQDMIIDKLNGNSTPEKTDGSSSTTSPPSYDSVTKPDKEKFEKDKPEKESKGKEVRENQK

CC[C@H](C)[C@@H]1NC(=O)[C@@H]2CSSC[C@@H]3NC(=O)[C@H](C(C)C)NC(=O)[C@H](CC(C)C)NC(=O)[C@H](CC(N)=O)NC(=O)[C@@H]4CCCN4C(=O)[C@H](CCCNC(N)=O)NC(=O)[C@H](CSSC[C@H](NC(=O)[C@@H](N)CC(=O)O)C(=O)N[C@@H](CC(C)C)C(=O)NCC(=O)N[C@@H](Cc4ccccc4)C(=O)N[C@@H](CCSC)C(=O)N[C@@H](CCCNC(=N)N)C(=O)N[C@@H](CCCCN)C(=O)N2)NC(=O)[C@H](CSSC[C@@H](C(=O)N[C@@H](CCCCN)C(=O)N[C@@H](Cc2ccc(O)cc2)C(=O)N[C@H](C(=O)N[C@@H](Cc2ccccc2)C(N)=O)C(C)C)NC(=O)[C@H](Cc2c[nH]c4ccccc24)NC(=O)[C@H](CCCCN)NC(=O)[C@H](Cc2cnc[nH]2)NC(=O)[C@H]([C@@H](C)O)NC(=O)[C@H](CCCNC(=N)N)NC(=O)[C@H](CO)NC3=O)NC(=O)[C@H](CCCCN)NC(=O)[C@H](CC(=O)O)NC(=O)[C@H](CC(N)=O)NC(=O)[C@H](CC(=O)O)NC(=O)[C@@H]2CCCN2C1=O [compound 116]
IC50 (hNav1.7; Use): 170 nM
IC50 (hNav1.5; IWQ Use Nav1.5 (μM)): 11 µM
IC50 (hNav1.3; Use): 230 nM

CC[C@H](C)[C@@H]1NC(=O)[C@@H]2CSSC[C@@H]3NC(=O)[C@H](C(C)C)NC(=O)[C@H](CC(C)C)NC(=O)[C@H](CC(N)=O)NC(=O)[C@@H]4CCCN4C(=O)[C@H](CCCNC(=N)N)NC(=O)[C@H](CSSC[C@H](NC(=O)[C@@H](N)CC(=O)O)C(=O)N[C@@H](CC(C)C)C(=O)NCC(=O)N[C@@H](Cc4ccccc4)C(=O)N[C@@H](CCSC)C(=O)N[C@@H](CCCNC(=N)N)C(=O)N[C@@H](CCCCN)C(=O)N2)NC(=O)[C@H](CSSC[C@@H](C(=O)N[C@@H](CCCCN)C(=O)N[C@@H](Cc2ccc(O)cc2)C(=O)N[C@H](C(=O)N[C@@H](Cc2ccccc2)C(N)=O)C(C)C)NC(=O)[C@H](Cc2ccc(C(=O)O)cc2)NC(=O)[C@H](CCCCN)NC(=O)[C@H](Cc2c[nH]cn2)NC(=O)[C@H]([C@@H](C)O)NC(=O)[C@H](CCCNC(=N)N)NC(=O)[C@H](CO)NC3=O)NC(=O)[C@H](CCCCN)NC(=O)[C@H](CC(=O)O)NC(=O)[C@H](CC(N)=O)NC(=O)[C@H](CC(=O)O)NC(=O)[C@@H]2CCCN2C1=O [compound 363] (H-DCLGFMRKCIPDNDKCCRPNLVCSRTHK[Phe(4-COOH)]CKYVF-NH2; disulfide 2-17, 9-23, 16-30)
IC50 (hNav1.7; Table 24, use, […]): 15000 nM
IC50 (hNav1.5; Table 24, IonWorks Quattro, use, […], read-out: IWQ Use Nav1.5): 18.8 µM
IC50 (hNav1.3; Table 24, use, […]): 14900 nM

CC[C@H](C)[C@@H]1NC(=O)[C@@H]2CSSC[C@@H]3NC(=O)[C@H](C(C)C)NC(=O)[C@H](CC(C)C)NC(=O)[C@H](CC(N)=O)NC(=O)[C@@H]4CCCN4C(=O)[C@H](CCCNC(=N)N)NC(=O)[C@H](CSSC[C@H](NC(=O)[C@@H](N)CC(=O)O)C(=O)N[C@@H](CC(C)C)C(=O)NCC(=O)N[C@@H](C)C(=O)N[C@@H](Cc4ccccc4)C(=O)N[C@@H](CCCNC(=N)N)C(=O)N[C@@H](CCCCN)C(=O)N2)NC(=O)[C@H](CSSC[C@@H](C(=O)N[C@@H](CCCCN)C(=O)N[C@@H](Cc2ccc(O)cc2)C(=O)N[C@H](C(=O)N[C@@H](Cc2ccccc2)C(N)=O)C(C)C)NC(=O)[C@H](Cc2c[nH]c4ccccc24)NC(=O)[C@H](CCCCN)NC(=O)[C@H](Cc2c[nH]cn2)NC(=O)[C@H]([C@@H](C)O)NC(=O)[C@H](CCCNC(=N)N)NC(=O)[C@H](CO)NC3=O)NC(=O)[C@H](CCCCN)NC(=O)[C@H](CC(=O)O)NC(=O)[C@H](CC(N)=O)NC(=O)[C@H](CCC(=O)O)NC(=O)[C@@H]2CCCN2C1=O [compound 703] (H-DCLGAFRKCIPENDKCCRPNLVCSRTHKWCKYVF-NH2; disulfide 2-17, 9-23, 16-30)
IC50 (hNav1.7; use-dependent protocol, hNav1.7): 610 nM
IC50 (hNav1.5; IonWorks Quattro, use-dependent protocol, hNav1.5, read-out: IWQ Use Nav1.5): 45 µM
IC50 (hNav1.3; use-dependent protocol, hNav1.3): 200 nM

CC[C@H](C)[C@@H]1NC(=O)[C@@H]2CSSC[C@@H]3NC(=O)[C@H](C(C)C)NC(=O)[C@H](CC(C)C)NC(=O)[C@H](CC(N)=O)NC(=O)[C@@H]4CCCN4C(=O)[C@H](CCCNC(=N)N)NC(=O)[C@H](CSSC[C@H](NC(=O)[C@@H](N)CC(=O)O)C(=O)N[C@@H](CC(C)C)C(=O)NCC(=O)N[C@@H](C)C(=O)N[C@@H](CCSC)C(=O)N[C@@H](CCCNC(=N)N)C(=O)N[C@@H](CCCCN)C(=O)N2)NC(=O)[C@H](CSSC[C@@H](C(=O)N[C@@H](CCCCN)C(=O)N[C@@H](Cc2ccc(O)cc2)C(=O)N[C@H](C(=O)N[C@@H](Cc2ccccc2)C(N)=O)C(C)C)NC(=O)[C@H](Cc2c[nH]c4ccccc24)NC(=O)[C@H](CO)NC(=O)[C@H](Cc2c[nH]cn2)NC(=O)[C@H]([C@@H](C)O)NC(=O)[C@H](CCCNC(=N)N)NC(=O)[C@H](CO)NC3=O)NC(=O)[C@H](CCCCN)NC(=O)[C@H](CC(=O)O)NC(=O)[C@H](CC(N)=O)NC(=O)[C@H](CC(=O)O)NC(=O)[C@@H]2CCCN2C1=O [compound 738] (H-DCLGAMRKCIPDNDKCCRPNLVCSRTHSWCKYVF-NH2; disulfide 2-17, 9-23, 16-30)
IC50 (hNav1.7; use-dependent block, hNav1.7): 650 nM
IC50 (hNav1.5; [1]): 21.9 µM
IC50 (hNav1.3; use-dependent block, hNav1.3): 1800 nM

CCCC[C@@H]1NC(=O)[C@H](C)NC(=O)CNC(=O)[C@H](CC(C)C)NC(=O)[C@@H](NC(=O)[C@@H](N)CC(=O)O)CSSC[C@@H]2NC(=O)[C@@H]3CSSC[C@@H](C(=O)N[C@@H](CCCCN)C(=O)N[C@@H](Cc4ccc(O)cc4)C(=O)N[C@H](C(=O)N[C@@H](Cc4ccccc4)C(N)=O)C(C)C)NC(=O)[C@H](Cc4c[nH]c5ccccc45)NC(=O)[C@H](CCCCN)NC(=O)[C@H](Cc4cnc[nH]4)NC(=O)[C@H]([C@@H](C)O)NC(=O)[C@H](CCCNC(=N)N)NC(=O)[C@H](CO)NC(=O)[C@H](CSSC[C@H](NC(=O)[C@H](CCCCN)NC(=O)[C@H](CCCNC(=N)N)NC1=O)C(=O)N[C@@H]([C@@H](C)CC)C(=O)N1CCC[C@H]1C(=O)N[C@@H](CC(=O)O)C(=O)N[C@@H](CC(N)=O)C(=O)N[C@@H](CC(=O)O)C(=O)N[C@@H](CCCCN)C(=O)N3)NC(=O)[C@H](C(C)C)NC(=O)[C@H](CC(C)C)NC(=O)[C@H](CC(N)=O)NC(=O)[C@@H]1CCCN1C(=O)[C@H](CCCNC(=N)N)NC2=O [compound 721]
IC50 (hNav1.7; use-dependent block, hNav1.7): 150 nM
IC50 (hNav1.5; [1]): 45 µM
IC50 (hNav1.3; use-dependent block, hNav1.3): 410 nM

CC[C@H](C)[C@@H]1NC(=O)[C@@H]2CSSC[C@@H]3NC(=O)[C@H](C(C)C)NC(=O)[C@H](CC(C)C)NC(=O)[C@H](CC(N)=O)NC(=O)[C@@H]4CCCN4C(=O)[C@H](CCCNC(=N)N)NC(=O)[C@H](CSSC[C@H](NC(=O)[C@@H](N)CC(=O)O)C(=O)N[C@@H](CC(C)C)C(=O)NCC(=O)N[C@@H](Cc4ccccc4)C(=O)N[C@@H](CCSC)C(=O)N[C@@H](CCCNC(=N)N)C(=O)N[C@@H](CCCCN)C(=O)N2)NC(=O)[C@H](CSSC[C@@H](C(=O)N[C@@H](CCCCN)C(=O)N[C@@H](Cc2ccc(O)cc2)C(=O)N[C@H](C(=O)N[C@@H](Cc2ccccc2)C(N)=O)C(C)C)NC(=O)[C@H](Cc2c[nH]c4ccccc24)NC(=O)[C@H](CCCCN)NC(=O)[C@H](Cc2c[nH]cn2)NC(=O)[C@H](Cc2ccccn2)NC(=O)[C@H](CCCNC(=N)N)NC(=O)[C@H](CO)NC3=O)NC(=O)[C@H](CCCCN)NC(=O)[C@H](CC(=O)O)NC(=O)[C@H](CC(N)=O)NC(=O)[C@H](CC(=O)O)NC(=O)[C@@H]2CCCN2C1=O [compound 349] (H-DCLGFMRKCIPDNDKCCRPNLVCSR[2Pal]HKWCKYVF-NH2; disulfide 2-17, 9-23, 16-30)
IC50 (hNav1.7; Table 22, use, […]): 260 nM
IC50 (hNav1.5; Table 22, IonWorks Quattro, use, […], read-out: IWQ Use Nav1.5): 10.6 µM
IC50 (hNav1.3; Table 22, use, […]): 60 nM

CC[C@H](C)[C@@H]1NC(=O)[C@@H]2CSSC[C@@H]3NC(=O)[C@H](C(C)C)NC(=O)[C@H](CC(C)C)NC(=O)[C@H](CC(N)=O)NC(=O)[C@@H]4CCCN4C(=O)[C@H](CCCNC(=N)N)NC(=O)[C@H](CSSC[C@H](NC(=O)[C@@H](N)CC(=O)O)C(=O)N[C@@H](CC(C)C)C(=O)NCC(=O)N[C@@H](C)C(=O)N[C@@H](Cc4ccccc4)C(=O)N[C@@H](CCCNC(=N)N)C(=O)N[C@@H](CCCCN)C(=O)N2)NC(=O)[C@H](CSSC[C@@H](C(=O)N[C@@H](CCCCN)C(=O)N[C@@H](Cc2ccc(O)cc2)C(=O)N[C@H](C(=O)N[C@@H](Cc2ccccc2)C(=O)O)C(C)C)NC(=O)[C@H](Cc2c[nH]c4ccccc24)NC(=O)[C@H](CCCNC(=N)N)NC(=O)[C@H](Cc2c[nH]cn2)NC(=O)[C@H]([C@@H](C)O)NC(=O)[C@H](CCCNC(=N)N)NC(=O)[C@H](CO)NC3=O)NC(=O)[C@H](CCCCN)NC(=O)[C@H](CC(=O)O)NC(=O)[C@H]([C@@H](C)O)NC(=O)[C@H](CC(=O)O)NC(=O)[C@@H]2CCCN2C1=O [compound 850]
IC50 (hNav1.7; use-dependent block, hNav1.7): > 5000 nM
IC50 (hNav1.5; [1]): > 5 µM
IC50 (hNav1.3; use-dependent block, hNav1.3): 1300 nM

CSCC[C@@H]1NC(=O)[C@H](Cc2ccccc2)NC(=O)CNC(=O)[C@H](CC(C)C)NC(=O)[C@@H](NC(=O)[C@@H](N)CC(=O)O)CSSC[C@@H]2NC(=O)[C@@H]3CSSC[C@@H](C(=O)N[C@@H](CCCCN)C(=O)N[C@@H](Cc4ccc(O)cc4)C(=O)N[C@H](C(=O)N[C@@H](Cc4ccccc4)C(N)=O)C(C)C)NC(=O)[C@H](Cc4c[nH]c5ccccc45)NC(=O)[C@H](CCCCN)NC(=O)[C@H](Cc4c[nH]cn4)NC(=O)[C@H]([C@@H](C)O)NC(=O)[C@H](CCCNC(=N)N)NC(=O)[C@H](CO)NC(=O)[C@H](CSSC[C@H](NC(=O)[C@H](CCCCN)NC(=O)[C@H](CCCNC(=N)N)NC1=O)C(=O)N[C@@H](Cc1ccc(C(=O)O)cc1)C(=O)N1CCC[C@H]1C(=O)N[C@@H](CC(=O)O)C(=O)N[C@@H](CC(N)=O)C(=O)N[C@@H](CC(=O)O)C(=O)N[C@@H](CCCCN)C(=O)N3)NC(=O)[C@H](C(C)C)NC(=O)[C@H](CC(C)C)NC(=O)[C@H](CC(N)=O)NC(=O)[C@@H]1CCCN1C(=O)[C@H](CCCNC(=N)N)NC2=O [compound 310]
IC50 (hNav1.7; Use): 280 nM
IC50 (hNav1.5; IonWorks Quattro, Use, read-out: IWQ Use Nav1.5): 6.87 µM
IC50 (hNav1.3; Use): 230 nM
